Experimental data taken from US11285142B2, “Compositions and methods for identifying and treating dystonia disorders” (DUKE UNIVERSITY, priority 2015, dated 2022).

How the values were obtained:
CreP = assay: Western blot of CreP in EGFP-delta-E Torsin1a assay cell line; assay type: cell-based, human; details: EGFP-ΔE Torsin1a cells, increasing concentration
Experimental: (§1) Cells were harvested in RIPA buffer [150 mM NaCl/50 mM NaH2PO4/2 mM EDTA/l % Triton X-100/0.5% SDS/0.5% deoxycholic acid/50 mM NaF/10 mM Na4P2O7/1 mM Na3VO4/1× phosphatase inhibitor cocktail (Sigma #P5726)/1× cOmplete Mini EDTA-free protease inhibitor cocktail (Roche #04693159001)]. Total protein concentrations were assessed by BCA assay (Thermo Fisher Scientific #23225). Proteins were resolved on 4-15% TGX gels (Bio-Rad #5671085), transferred to nitrocelulose membrane, blocked in TBS-T+5% non-fat dry milk, and probed as indicated. (Primary antibodies employed in the examples of the disclosure are presented in Table 4.) ATF4 expression was normalized to […] expression. N=3 independent control cells lines and 4 independent DYT1 cell lines, 3 replicates each.
(§2) Western blot analyses were conducted to determine the effect of Lopinavir on ATF4, CreP, pEIF2-alpha, and β-actin abundance in EGFP-ΔE Torsin1a expression assay cell lines. […] This down regulation of CreP is in keeping with the HIV protease inhibitor mediated CreP regulation. (See De Gassart et al. PNAS 2015.)

luciferase secretion = assay: C.Luc. Secretion Assay (luciferase secretion, secretory deficits); assay type: cell-based
Experimental: We tested each shRNA for its ability to rescue a previously described defect in luciferase secretion. Chen, P. et al. (2010) Hum. Mol. Genet. 19, 3502-15; Cao, S. et al. (2010) Dis. Model. Mech. 3, 386-96; Barrows, N. J., et al., (2010)J. Biomol. Screen. 15, 735-47.) DYT1 patient data were obtained from 4 independent patient-derived lines and WT data (black bar) from 3 normal healthy control lines. Each line was tested in 5 independent experiments that included 4 technical replicates each (with the exception of SCD data from 3 independent experiments).
(Cao, S. et al. (2010) Dis. Model. Mech. 3, 386-96.) Subsequent testing of additional HIV protease inhibitors supported the activity of this class of compounds and generated favorable structure-activity relationship (SAR) data from which to design improved compounds (Tables 5 and 6). The results with a subset of compounds were also observed in a Luciferase secretion assay (Tables 5 and 6).

EIF2-alpha = assay: Western blot of phosphorylated eIF2-alpha in EGFP-delta-E Torsin1a assay cell line; assay type: cell-based, human; details: EGFP-ΔE Torsin1a cells, dose dependent
Experimental: as §1, §2

[1] = system: Flp-In T-REx 293 cells expressing delta-E Torsin1a; assay: Cytotoxicity (cell count, cellular morphology) in the Torsin1a assay cell line; assay type: cell-based, human
Experimental: (§3) In order to test this model directly, the delta-E Torsin1a cell line was treated with compounds targeting the eIF2-alpha signaling pathway (FIG. 2). […] The following day, serial drug dilutions were prepared at 2× final concentration in assay media containing 10 μg/mL tetracycline and 30 μL of the drug/tetracycline mixture was added to the appropriate wells, while control wells received 30 μL of assay media alone or assay media+10 μg/mL tetracycline (final tetracycline concentration for all wells except negative controls: 5 μg/mL). Cells were then incubated at 37° C./5% CO^2 for 48 hours and fixed, permeabilized, Hoechst stained, and imaged as described above. The range of the Torsin1a localization effect was normalized to the percentage of cells with puncta in vehicle-treated delta-E cell line as the maximum and that in WT cell line as the minimum (FIG. 2, panels c-h). Cell count and EGFP-Torsin1a expression were normalized to their respective values in the vehicle-treated delta-E cell line as the maximum. All dose response data are the average of 4 independent experiments per dose. Untreated control data used for normalization are the average of 24 independent experiments.
(§4) Efficacy is calculated as the magnitude of the pathology correction relative to the mutant Torsin1a pathology. For example an efficacy=−100% would be equivalent to the WT TorsinA phenotype, and 0% would be equivalent to the Mutant TorsinA phenotype. CCv2 refers to the dose response Curve Class annotation, and AC refers to Active Concentration.

[2] = as above; assay type: cell-based, human; details: human
Experimental: as §3, §4

ATF4 = assay: Western blot of ATF4 in EGFP-delta-E Torsin1a assay cell line; assay type: cell-based, human; details: EGFP-ΔE Torsin1a cells, dose dependent
Experimental: as §1, §2

[3] = system: delta-E Torsin1a localization in Flp-In T-REx 293 cells expressing EGFP-delta-E Torsin1a; assay: delta-E Torsin1a mis-localization assay (high-content imaging, % cells with EGFP puncta); assay type: cell-based, human
Experimental: To limit variation in expression levels associated with random integration or transient expression, single copies of either WT or delta-E human TOR1A cDNAs with N-terminal EGFP fusions were inserted at the FRT site in Flp-In™ T-Rex™ 293 cells (Thermo Fisher Scientific #R780-07) via flippase recombinase-mediated cassette exchange according to the manufacturer's recommended protocols.
The cells were maintained at 37° C./5% CO2. All experiments were performed on cells with fewer than 5 passages.
Torsin1a expression was also controlled by tetracycline induction to avoid selective pressure modifying the cellular phenotypes. […] The mutant phenotype was measured as the percentage of cells with one or more EGFP puncta using automated high-content imaging analysis (see infra).
The image analysis algorithm was developed using the Cellomics ArrayScan V CompartmentAnalysisV2 protocol. Hoechst's nuclear staining (Ch1: excitation 350 nm; emission 461 nm) was used for focusing and for cell identification by nuclear size, shape, and intensity. […] Detected cells were gated according to nuclear area, length-to-width ratio, and perimeter-to-area ratio. For the purpose of analysis, cell bodies were defined by a radius of 10 μm from the outer edge of the defined nucleus. Overlapping cells were automatically segmented according to the Cellomics ArrayScanV CompartmentAnalysisV2 object segmentation feature. EGFP fluorescence (Ch2: excitation 488 nm; emission 509 nm) was used for puncta detection. […] Torsin1a puncta were identified using the spot detection feature of the Compartmental AnalysisV2 protocol. The percentage of cells containing one or more puncta was used as the primary metric in this assay.
as §3

Question: For Cc1cccc(C)c1OCC(=O)N[C@@H](Cc1ccccc1)[C@@H](O)C[C@H](Cc1ccccc1)NC(=O)[C@H](C(C)C)N1CCCNC1=O [Lopinavir, lopinavir], which “CreP abundance (steady state levels)” value (CreP) is on record?
Answer: down-regulation of steady state levels

Question: What about the “CreP abundance (steady state levels)” value (CreP; listed as lopinavir) of the same compound?
Answer: decreases CReP abundance

Question: And the EC50 (luciferase secretion; Table 5)?
Answer: 0.98 µM

Question: What about the Emax (luciferase secretion; Table 5, read-out: C.Luc. Secretion Assay Secretion Max Efficacy) of the same compound?
Answer: 177%

Question: And the “correction of secretory deficits (in words)” value (luciferase secretion; orthogonal assays)?
Answer: corrected secretory deficits

Question: And the “phosphorylation of EIF2-alpha” value (EIF2-alpha)?
Answer: increases phosphorylation of EIF2-alpha

Question: And the “Cytotox CC-v2 (dose response Curve Class)” value ([1]; Table 6)?
Answer: −3

Question: What about the “Cytotox Efficacy” value ([1]; Table 6) of the same compound?
Answer: −69.87

Question: And the “Cytotox Max Resp” value ([1]; Table 6)?
Answer: −55.19

Question: And the “toxicity (cell count, cellular morphology; in words)” value ([1]; at effective concentrations)?
Answer: no cellular toxicity observed at effective doses

Question: And the EC50 at 48 h ([2]; Flp-In T-REx 293 cells inducibly expressing delta-E Torsin1a, Table 5, read-out: ΔE TorsinA Mislocalization Assay Cytotoxicity EC50)?
Answer: 37.2 µM

Question: And the AC50 ([2]; Table 6, read-out: Cytotox AC50)?
Answer: 37.2 µM

Question: What about the ATF4 abundance (ATF4) of the same compound?
Answer: increases phosphorylation of EIF2-alpha and ATF4 abundance

Question: And the EC50 ([3]; Homo sapiens, Flp-In-T-REx-293, Table 5, read-out: ΔE TorsinA Mislocalization Assay Localization EC50)?
Answer: 4.69 µM

Question: And the Emax ([3]; Homo sapiens, Flp-In-T-REx-293, Table 5, read-out: ΔE TorsinA Mislocalization Assay Localization Max Efficacy)?
Answer: 70%

Question: And the AC50 ([3]; Homo sapiens, Flp-In-T-REx-293, Table 6, AC = Active Concentration, read-out: % pathology AC50)?
Answer: 4.69 µM

Question: And the “% pathology Max Resp” value ([3]; Table 6, normalized scale, WT-TorsinA line 0%, DYT1 mutant line 100% pathology)?
Answer: −89.03%

Question: And the “% pathology Efficacy” value ([3]; Table 6, normalized scale, −100% = WT TorsinA phenotype, 0% = Mutant TorsinA phenotype)?
Answer: −69.97%

Question: And the “effect on delta-E Torsin1a localization (in words)” value ([3]; delta-E cell line, dose response)?
Answer: corrected TorsinA localization in a dose-dependent fashion
